In publication PMC6534110, “Enzyme characterization and biological activities of a resuscitation promoting factor from an oil degrading bacterium Rhodococcus erythropolis KB1” (PeerJ, 2019):

Target: T1, Rpf-1 (Rhodococcus erythropolis, UniProt C0ZMT9)
T1 construct: N-terminal Trx-His-S tag of pET-32a(+) kept (37 kDa on SDS-PAGE); forward primer encodes MSGRHR, reverse primer encodes C-terminal AKTFLK; conserved Cys50, Glu51, Cys114
Test: fluorogenic hydrolysis, 4-methylumbelliferone release ([…] nm)
Type: biochemical
Settings: 22 μM printed, McIlvaine phosphate-citrate buffer pH 5.2, 37 °C, 30 min

T1 sequence (C0ZMT9 entry or part of it): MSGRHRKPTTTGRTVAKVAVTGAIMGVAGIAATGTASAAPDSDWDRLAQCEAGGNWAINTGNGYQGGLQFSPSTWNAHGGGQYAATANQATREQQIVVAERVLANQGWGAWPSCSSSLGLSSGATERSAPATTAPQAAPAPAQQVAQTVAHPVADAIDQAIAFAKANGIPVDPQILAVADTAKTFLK

Question: Which “fluorogenic hydrolysis, 4-methylumbelliferone release (360/455 nm)” value does the source give for `CC(=O)N[C@H]1[C@H](Oc2ccc3c(C)cc(=O)oc3c2)O[C@H](CO)[C@@H](O[C@@H]2O[C@H](CO)[C@@H](O[C@@H]3O[C@H](CO)[C@@H](O)[C@H](O)[C@H]3NC(C)=O)[C@H](O)[C@H]2NC(C)=O)[C@@H]1O` [4-methylumbelliferyl-β-D-N,N′,N″-triacetylchitotrioside] here?
Answer: The recombinant Rpf-1 showed muralytic activity when determined with the artificial lysozyme substrate
